Reference: patent publication US20240043405A1, “POTENT AND SELECTIVE IRREVERSIBLE INHIBITORS OF IRAK1” (Dana-Farber Cancer Institute, Inc., priority 2020, published 2024)

Legend:
IRAK1 = IRAK1 (Homo sapiens (Human), UniProt P51617); assay: Adapta Universal Kinase Assay (ThermoFisher) against IRAK1; type: biochemical; conditions: IRAK1/Histone H3 (1-20) peptide, 60 minutes at room temperature
Protocol: To measure the IC50 values of the compounds herein against IRAK1, the Adapta Universal Kinase Assay (ThermoFisher) was used. Briefly, 100 nL of different concentrations of the compounds in 100% DMSO were added to each well of a 384-well plate (Corning Cat. #4512). 2.4 μL of 30 mM HEPES, 2.5 μL of 4×ATP solution (in water), and 5 μL of 2× IRAK1/Histone H3 (1-20) peptide mixture (prepared in 50 mM HEPES pH 7.5, 0.01% BRIJ-35, 10 mM MgCl2, 1 mM EGTA) were added to each well. The plate was shaken for 30 seconds and centrifuged for 1 minute at 1000×g. The plate was then incubated at room temperature for 60 minutes. 5 μL of Detection Mix was added to each well. The plate was shaken for 30 seconds and centrifuged for 1 minute at 1000×g. The plate was then incubated at room temperature for 60 minutes. The plate was subsequently read on a fluorescence plate reader, and the emissions ratio was calculated to determine the ratio of ATP to ADP. Emissions Ratio=AF647 Emission (665 nm)/Europium Emission (615 nm).

IRAK4 = IRAK4 (Homo sapiens (Human), UniProt Q9NWZ3); assay: Z'-LYTE assay (ThermoFisher) against IRAK4; type: biochemical; conditions: IRAK4/Ser/Thr 07, 60 minutes at room temperature
Chain of IRAK4 (Q9NWZ3 whole entry): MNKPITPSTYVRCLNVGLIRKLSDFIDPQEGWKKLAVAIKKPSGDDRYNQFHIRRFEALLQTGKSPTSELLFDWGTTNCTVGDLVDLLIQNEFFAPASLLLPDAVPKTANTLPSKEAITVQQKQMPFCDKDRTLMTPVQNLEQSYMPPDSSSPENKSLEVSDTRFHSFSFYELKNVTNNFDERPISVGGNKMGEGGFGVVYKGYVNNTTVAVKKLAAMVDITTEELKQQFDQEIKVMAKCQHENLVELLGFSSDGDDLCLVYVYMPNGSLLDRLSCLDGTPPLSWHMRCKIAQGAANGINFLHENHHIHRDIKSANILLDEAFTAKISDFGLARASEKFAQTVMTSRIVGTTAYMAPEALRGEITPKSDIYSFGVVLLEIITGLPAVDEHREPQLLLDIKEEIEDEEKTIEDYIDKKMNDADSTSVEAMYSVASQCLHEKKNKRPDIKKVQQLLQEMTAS
Protocol: To measure the 050 values of compounds herein against IRAK4, a Z′-LYTE assay (ThermoFisher) was used. Briefly, 2.5 μL. of different concentrations of the compounds in 1% DMSO were added to 2.4 μL kinase buffer (50 mM HEPES pH 7.5, 0.01% BRIJ-35, 10 mM MgCl2, 1 mM EGTA) in each well of a 384-well plate (Corning Cat. #3676). 5 μL of 2×IRAK4/Ser/Thr 07 mixture (prepared in 50 mM HEPES pH 7.5, 0.01% BRIJ-35, 10 mM MnCl2, 2 mM OTT, and 0.02% NaN3) and 2.5 μL of 4×ATP solution (4×ATP, 50 mM HEPES, pH 7.5, 0.01% BRIJ-35, 10 mM MgCl2, 1 mM EGTA) were added to each well. The plate was shaken for 30 seconds, and then incubated at room temperature for 60 minutes. 5 μL of a 1:100000 dilution of Development Reagent A was added to each well. The plate was shaken for 30 seconds and incubated for 60 minutes at room temperature. The plate was subsequently read on a fluorescence plate reader, and the emissions ratio was calculated to determine the ratio of Ser/Thr 07 phosphorylated by the reaction. Emissions Ratio=Coumarin Emission (443 nm)/Flourescein Emission (520 nm).

Chain of IRAK1 (P51617 whole entry): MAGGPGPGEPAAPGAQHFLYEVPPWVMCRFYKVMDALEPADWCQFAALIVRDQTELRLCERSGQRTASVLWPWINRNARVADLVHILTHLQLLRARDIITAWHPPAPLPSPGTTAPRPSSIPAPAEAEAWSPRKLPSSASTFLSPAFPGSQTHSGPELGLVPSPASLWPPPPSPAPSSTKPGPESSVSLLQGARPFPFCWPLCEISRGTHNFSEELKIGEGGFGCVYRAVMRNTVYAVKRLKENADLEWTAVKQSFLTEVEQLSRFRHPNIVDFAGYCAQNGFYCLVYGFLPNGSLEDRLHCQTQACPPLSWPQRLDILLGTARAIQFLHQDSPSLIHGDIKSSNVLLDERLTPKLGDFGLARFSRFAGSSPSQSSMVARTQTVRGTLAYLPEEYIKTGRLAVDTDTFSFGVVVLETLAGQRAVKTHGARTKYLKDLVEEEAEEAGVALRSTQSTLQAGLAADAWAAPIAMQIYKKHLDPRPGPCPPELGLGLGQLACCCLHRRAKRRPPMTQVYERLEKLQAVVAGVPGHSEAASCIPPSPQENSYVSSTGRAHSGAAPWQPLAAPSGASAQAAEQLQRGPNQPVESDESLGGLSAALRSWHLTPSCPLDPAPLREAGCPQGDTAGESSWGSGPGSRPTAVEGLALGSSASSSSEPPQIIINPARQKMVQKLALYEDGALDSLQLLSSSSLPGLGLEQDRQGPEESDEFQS

SMILES: C=CC(=O)N[C@@H]1CNC[C@H](C(=O)Nc2ccc(NC(=O)c3cccc(-c4ccn[nH]4)n3)nc2)C1 [Compound 006, N-(5-((3R,5S)-5-acrylamidopiperidine-3-carboxamido)pyridin-2-yl)-6-(1H-pyrazol-5-yl)-picolinamide]
- IC50 (IRAK1): 14 nM
- IC50 (IRAK4): 4000 nM

SMILES: C=CC(=O)N[C@@H]1CCCC(C(=O)Nc2ccc(NC(=O)c3cccc(-c4ccn[nH]4)n3)cc2F)C1 (stereo partly shown) [Compound 001]
- IC50 (IRAK1): 129 nM
- IC50 (IRAK4): > 10000 nM

SMILES: C=CC(=O)N1CCC[C@@H](C(=O)Nc2ccc(NC(=O)c3cccc(-c4ccn[nH]4)n3)cc2F)C1 [Compound 033, (R)-N-(4-(1 acryloylpiperidine-3-carboxamido)-3-fluorophenyl)-6-(1H-pyrazol-5-yl)picolinamide]
- IC50 (IRAK1): 74.2 nM
- IC50 (IRAK4): 2510 nM

SMILES: C=CC(=O)N1CCC[C@H](C(=O)Nc2ccc(NC(=O)c3cccc(-c4ccn[nH]4)n3)nc2)C1 [Compound 027, (S)-N-(5-(1-acryloylpiperidine-3-carboxamido)pyridin-2-yl)-6-(1H-pyrazol-5-yl)picolinamide]
- IC50 (IRAK1): 6.37 nM
- IC50 (IRAK4): 1870 nM

SMILES: C=CC(=O)N1CCC[C@H](C(=O)Nc2ccc(NC(=O)c3cccc(-c4ccn[nH]4)n3)cc2F)C1 [Compound 031, (S)-N-(4-(1-acryloylpiperidine-3-carboxamido)-3-fluorophenyl)-6-(1H-pyrazol-5-yl)picolinamide]
- IC50 (IRAK1): 40.1 nM
- IC50 (IRAK4): 1110 nM

SMILES: C=CC(=O)NC12CC(C(=O)Nc3ccc(NC(=O)c4cccc(-c5ccn[nH]5)n4)cc3F)(C1)C2 [Compound 016]
- IC50 (IRAK1): 301 nM
- IC50 (IRAK4): 9930 nM

SMILES: C=CC(=O)N[C@H]1C[C@@H](C(=O)Nc2ccc(NC(=O)c3cccc(-c4ccn[nH]4)n3)nc2)CN(CC(F)(F)F)C1 [Compound 038, N-(5-((3R,5S)-5-acrylamido-1-(2,2,2-trifluoroethyl)piperidine-3-carboxamido)pyridin-2-yl)-6-(1H-pyrazol-5-yl)picolinamide]
- IC50 (IRAK1): 12.1 nM
- IC50 (IRAK4): > 10000 nM

SMILES: C=CC(=O)N1CC2(CC(n3cc(-c4ccc(NC(=O)c5cccc(-c6cnoc6)n5)nc4)nn3)C2)C1 [Compound 024, N-(5-(1-(2-acryloyl-2-azaspiro[3,3]heptan-6-yl)-1H-1,2,3-triazol-4-yl)pyridin-2-yl)-6-(isoxazol-4-yl)picolinamide]
- IC50 (IRAK1): 612 nM
- IC50 (IRAK4): 3330 nM

SMILES: C=CC(=O)N1CCC[C@H](C(=O)Nc2ccc(NC(=O)c3cccc(-c4cnoc4)n3)nc2)C1 [Compound 029, (S)-N-(5-(1-acryloylpiperidine-3-carboxamido)pyridin-2-yl)-6-(isoxazol-4-yl)picolinamide]
- IC50 (IRAK1): 658 nM
- IC50 (IRAK4): > 10000 nM

SMILES: C=CC(=O)N1CCC[C@@H](C(=O)Nc2ccc(NC(=O)c3cccc(-c4cnoc4)n3)cc2F)C1 [Compound 034, (R)-N-(4-(1-acryloylpiperidine-3-carboxamido)-3-fluorophenyl)66-(isoxazol-4-yl)picolinamide]
- IC50 (IRAK1): 344 nM
- IC50 (IRAK4): 2010 nM

SMILES: C=CC(=O)N[C@@H]1CCCC(C(=O)Nc2ccc(NC(=O)c3cccc(-c4ccn[nH]4)n3)cc2C)C1 (stereo partly shown) [Compound 003]
- IC50 (IRAK1): 671 nM
- IC50 (IRAK4): > 10000 nM

SMILES: C=CC(=O)N1CCC[C@@H](C(=O)Nc2ccc(NC(=O)c3cccc(-c4cnoc4)n3)nc2)C1 [Compound 030, (R)-N-(5-(1-acryloylpiperidine-3-carboxamido)pyridin-2-yl)-6-(isoxazol-4-yl)picolinamide]
- IC50 (IRAK1): 399 nM
- IC50 (IRAK4): 3330 nM

SMILES: C=CC(=O)N1CCC[C@H](C(=O)Nc2ccc(NC(=O)c3cccc(-c4cnoc4)n3)cc2F)C1 [Compound 032, (S)-N-(4-(1-acryloylpiperidine-3-carboxamido)-3-fluorophenyl)-6-(isoxazol-4-yl)picolinamide]
- IC50 (IRAK1): 1190 nM
- IC50 (IRAK4): > 10000 nM

SMILES: C=CC(=O)N[C@@H]1CCC[C@H](C(=O)Nc2ccc(NC(=O)c3cccc(-c4ccn[nH]4)n3)nc2)C1 [Compound 002, N-(5-((1S,3R)-3-acrylamidocyclohexane-1-carboxamido)pyridin-2-yl)-6-(1H-pyrazol-5-yl)-picolinamide]
- IC50 (IRAK1): 257 nM
- IC50 (IRAK4): > 10000 nM

SMILES: C=CC(=O)N[C@@H]1CNCC(C(=O)Nc2ccc(NC(=O)c3cccc(-c4ccn[nH]4)n3)cc2F)C1 (stereo partly shown) [Compound 007]
- IC50 (IRAK1): 150 nM
- IC50 (IRAK4): > 10000 nM

SMILES: C=CC(=O)N[C@@H]1CCC[C@H](C(=O)Nc2ccc(NC(=O)c3cccc(-c4ccn[nH]4)n3)cc2)C1 [Compound 026, N-(4-((1 S,3R)-3-acrylamidocyclohexane-1-carboxamido)phenyl)-6-(1H-pyrazol-5-yl)-picolinamide]
- IC50 (IRAK1): 68.1 nM
- IC50 (IRAK4): > 10000 nM

SMILES: C=CC(=O)N[C@H]1C[C@@H](C(=O)Nc2ccc(NC(=O)c3cccc(-c4ccn[nH]4)n3)nc2)CN(C)C1 [Compound 013, N-(5-((3R,5S)-5-acrylamido-1-methylpiperidine-3-carboxamido)pyridin-2-yl)-6-(1H-pyrazol-5-yl)picolinamide]
- IC50 (IRAK1): 18.5 nM
- IC50 (IRAK4): > 10000 nM

SMILES: C=CC(=O)N1CCC[C@@H](C(=O)Nc2ccc(NC(=O)c3cccc(-c4ccn[nH]4)n3)nc2)C1 [Compound 028, (R)-N-(5-(1-acryloylpiperidine-3-carboxamido)pyridin-2-yl)-6-(1H-pyrazol-5-yl)picolinamide]
- IC50 (IRAK1): 12.5 nM
- IC50 (IRAK4): 722 nM

SMILES: C=CC(=O)N[C@H]1C[C@@H](C(=O)Nc2ccc(NC(=O)c3cccc(-c4ccn[nH]4)n3)nc2)CN(CC(F)F)C1 [Compound 039, N-(5-((3R,5S)-5-acrylamido-1-(2,2-difluorethyl)piperidine-3-carboxamido)pyridin-2-yl)-6-(1H-pyrazol-5-yl)picolinamide]
- IC50 (IRAK1): 14.9 nM
- IC50 (IRAK4): > 10000 nM

SMILES: C=CC(=O)N[C@H]1CCCC(C(=O)Nc2ccc(NC(=O)c3cccc(-c4ccn[nH]4)n3)nc2)C1 (stereo partly shown) [Compound 005]
- IC50 (IRAK1): 189 nM
- IC50 (IRAK4): > 10000 nM
